Source: US20100004234A1, “SPECIFIC KINASE INHIBITORS” (Kosan Biosciences Incorporated, priority 2004, published 2010)

How the values were obtained:
Assay in all cases: Kinase panel, residual activity
Type in all cases: biochemical
Conditions in all cases: read-out: Percent residual activity
[1] = target: IGF-1R(h) (Homo sapiens, UniProt P08069)
Protocol: (§1) In this panel of 124 kinases, 18 of the 19 kinases identified as having an active site cysteine were inhibited to some extent by hypothemycin at a concentration of 0.2 μM and/or 2 μM.

[2] = target: FGFR1(h) (Homo sapiens, UniProt P11362)
Protocol: as §1

[3] = target: RIPK2(h) (Homo sapiens, UniProt O43353)
Protocol: as §1

[4] = target: MAPKAP-K3(h) (Homo sapiens, UniProt Q16644)
Protocol: as §1

[5] = target: MSK2(h) (Homo sapiens, UniProt O75676)
Protocol: as §1

[6] = target: MAPK2(h) (Homo sapiens, UniProt P28482)
Protocol: as §1

[7] = target: Tie2(h) (Homo sapiens, UniProt Q02763)
Protocol: as §1

[8] = target: CaMKIV(h) (Homo sapiens, UniProt Q16566)
Protocol: as §1

[9] = target: Abl(T315I)(h) (Homo sapiens, UniProt P00519, T315I)
Protocol: as §1

[10] = target: Aurora-A(h) (Homo sapiens, UniProt O14965)
Protocol: as §1

[11] = target: Axl(h) (Homo sapiens, UniProt P30530)
Protocol: as §1

[12] = target: BRK(h) (Homo sapiens, UniProt Q13882)
Protocol: as §1

[13] = target: Ret(h) (Homo sapiens, UniProt P07949)
Protocol: as §1

[14] = target: MEK1(h) (Homo sapiens, UniProt Q02750)
Protocol: as §1

[15] = target: PKCι(h) (Homo sapiens, UniProt P41743)
Protocol: as §1

[16] = target: TrkB(h) (Homo sapiens, UniProt Q16620)
Protocol: as §1

[17] = target: ErbB4(h) (Homo sapiens, UniProt Q15303)
Protocol: as §1

[18] = target: Plk3(h) (Homo sapiens, UniProt Q9H4B4)
Protocol: as §1

[19] = target: PKBγ(h) (Homo sapiens, UniProt Q9Y243)
Protocol: as §1

[20] = target: Fer(h) (Homo sapiens, UniProt P16591)
Protocol: as §1

[21] = target: NEK6(h) (Homo sapiens, UniProt Q9HC98)
Protocol: as §1

[22] = target: Rsk1(h) (Homo sapiens, UniProt Q15418)
Protocol: as §1

[23] = target: MST2(h) (Homo sapiens, UniProt Q13188)
Protocol: as §1

[24] = target: MINK(h) (Homo sapiens, UniProt Q8N4C8)
Protocol: as §1

[25] = target: GSK3β(h) (Homo sapiens, UniProt P49841)
Protocol: as §1

[26] = target: PKA(h) (Homo sapiens, UniProt P17612)
Protocol: as §1

[27] = target: cSRC(h) (Homo sapiens, UniProt P12931)
Protocol: as §1

[28] = target: CDK2/cyclinA(h) (Homo sapiens, UniProt P24941)
Protocol: as §1

[29] = target: PDGFRα(h) (Homo sapiens, UniProt P16234)
Protocol: as §1

[30] = target: PKCδ(h) (Homo sapiens, UniProt Q05655)
Protocol: as §1

[31] = target: Ros(h) (Homo sapiens, UniProt P08922)
Protocol: as §1

[32] = target: CDK2/cyclinE(h) (Homo sapiens, UniProt P24941)
Protocol: as §1

[33] = target: Arg(h) (Homo sapiens, UniProt P42684)
Protocol: as §1

[34] = target: Yes(h) (Homo sapiens, UniProt P07947)
Protocol: as §1

[35] = target: SAPK4(h) (Homo sapiens, UniProt O15264)
Protocol: as §1

[36] = target: Lyn(h) (Homo sapiens, UniProt P07948)
Protocol: as §1

[37] = target: Pim-1(h) (Homo sapiens, UniProt P11309)
Protocol: as §1

Sequence of MEK1(h) (Q02750 whole entry): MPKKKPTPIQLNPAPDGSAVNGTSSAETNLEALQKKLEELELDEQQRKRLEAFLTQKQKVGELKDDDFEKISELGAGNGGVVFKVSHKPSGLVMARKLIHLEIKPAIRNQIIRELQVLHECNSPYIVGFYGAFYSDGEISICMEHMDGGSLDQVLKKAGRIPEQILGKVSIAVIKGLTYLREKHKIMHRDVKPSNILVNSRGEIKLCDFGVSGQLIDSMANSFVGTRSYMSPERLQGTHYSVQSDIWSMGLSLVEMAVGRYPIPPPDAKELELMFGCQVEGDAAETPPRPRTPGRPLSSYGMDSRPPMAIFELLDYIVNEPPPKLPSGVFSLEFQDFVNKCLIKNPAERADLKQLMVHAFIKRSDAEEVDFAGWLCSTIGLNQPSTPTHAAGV
Sequence of Aurora-A(h) (O14965 whole entry): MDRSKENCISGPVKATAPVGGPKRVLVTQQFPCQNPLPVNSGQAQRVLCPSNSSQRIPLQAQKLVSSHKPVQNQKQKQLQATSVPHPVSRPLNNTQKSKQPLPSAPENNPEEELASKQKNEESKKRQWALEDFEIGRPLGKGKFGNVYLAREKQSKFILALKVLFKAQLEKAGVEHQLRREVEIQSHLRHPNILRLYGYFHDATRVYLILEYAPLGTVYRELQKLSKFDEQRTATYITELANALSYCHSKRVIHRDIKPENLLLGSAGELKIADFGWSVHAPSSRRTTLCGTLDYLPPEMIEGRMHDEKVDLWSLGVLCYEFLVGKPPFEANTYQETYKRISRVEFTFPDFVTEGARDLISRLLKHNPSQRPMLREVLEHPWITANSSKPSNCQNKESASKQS
Sequence of PDGFRα(h) (P16234 24-1089): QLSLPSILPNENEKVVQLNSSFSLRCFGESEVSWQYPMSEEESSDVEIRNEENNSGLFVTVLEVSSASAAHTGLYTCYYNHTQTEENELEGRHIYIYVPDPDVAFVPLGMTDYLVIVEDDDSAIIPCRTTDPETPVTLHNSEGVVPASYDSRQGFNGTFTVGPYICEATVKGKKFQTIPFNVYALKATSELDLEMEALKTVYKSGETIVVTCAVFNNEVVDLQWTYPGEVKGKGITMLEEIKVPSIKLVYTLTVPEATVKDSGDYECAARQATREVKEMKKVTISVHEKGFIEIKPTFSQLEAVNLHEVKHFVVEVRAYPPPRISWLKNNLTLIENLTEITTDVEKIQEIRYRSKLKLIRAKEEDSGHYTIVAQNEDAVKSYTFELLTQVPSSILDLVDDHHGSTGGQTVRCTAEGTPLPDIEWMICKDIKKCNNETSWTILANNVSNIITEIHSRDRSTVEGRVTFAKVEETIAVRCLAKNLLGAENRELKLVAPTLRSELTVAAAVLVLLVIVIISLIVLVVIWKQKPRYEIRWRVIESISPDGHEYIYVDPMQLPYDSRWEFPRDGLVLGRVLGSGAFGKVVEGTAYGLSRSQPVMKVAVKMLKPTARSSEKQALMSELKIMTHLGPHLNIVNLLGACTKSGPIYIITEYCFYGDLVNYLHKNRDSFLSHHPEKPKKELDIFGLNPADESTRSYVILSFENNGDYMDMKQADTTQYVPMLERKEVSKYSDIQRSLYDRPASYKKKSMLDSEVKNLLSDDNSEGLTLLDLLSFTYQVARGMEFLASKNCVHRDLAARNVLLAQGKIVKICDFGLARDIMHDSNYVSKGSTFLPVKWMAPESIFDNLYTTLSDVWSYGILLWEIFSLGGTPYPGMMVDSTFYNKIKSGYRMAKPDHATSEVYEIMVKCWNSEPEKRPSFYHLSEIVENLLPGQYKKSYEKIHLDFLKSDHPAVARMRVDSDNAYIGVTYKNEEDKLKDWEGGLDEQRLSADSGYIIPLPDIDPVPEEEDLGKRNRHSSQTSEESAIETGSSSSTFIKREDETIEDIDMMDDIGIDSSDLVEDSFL
Sequence of GSK3β(h) (P49841 whole entry): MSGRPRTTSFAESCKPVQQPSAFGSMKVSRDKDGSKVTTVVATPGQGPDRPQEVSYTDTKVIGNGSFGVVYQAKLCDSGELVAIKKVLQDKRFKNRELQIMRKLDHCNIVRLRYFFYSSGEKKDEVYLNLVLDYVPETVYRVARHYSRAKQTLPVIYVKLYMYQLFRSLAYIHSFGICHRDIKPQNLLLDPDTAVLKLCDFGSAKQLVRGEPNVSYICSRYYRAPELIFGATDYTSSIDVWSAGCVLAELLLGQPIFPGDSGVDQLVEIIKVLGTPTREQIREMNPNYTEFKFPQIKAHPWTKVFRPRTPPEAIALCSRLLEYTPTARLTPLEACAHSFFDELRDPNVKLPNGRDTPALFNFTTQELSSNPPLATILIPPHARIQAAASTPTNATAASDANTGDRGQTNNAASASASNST
Sequence of TrkB(h) (Q16620 32-822): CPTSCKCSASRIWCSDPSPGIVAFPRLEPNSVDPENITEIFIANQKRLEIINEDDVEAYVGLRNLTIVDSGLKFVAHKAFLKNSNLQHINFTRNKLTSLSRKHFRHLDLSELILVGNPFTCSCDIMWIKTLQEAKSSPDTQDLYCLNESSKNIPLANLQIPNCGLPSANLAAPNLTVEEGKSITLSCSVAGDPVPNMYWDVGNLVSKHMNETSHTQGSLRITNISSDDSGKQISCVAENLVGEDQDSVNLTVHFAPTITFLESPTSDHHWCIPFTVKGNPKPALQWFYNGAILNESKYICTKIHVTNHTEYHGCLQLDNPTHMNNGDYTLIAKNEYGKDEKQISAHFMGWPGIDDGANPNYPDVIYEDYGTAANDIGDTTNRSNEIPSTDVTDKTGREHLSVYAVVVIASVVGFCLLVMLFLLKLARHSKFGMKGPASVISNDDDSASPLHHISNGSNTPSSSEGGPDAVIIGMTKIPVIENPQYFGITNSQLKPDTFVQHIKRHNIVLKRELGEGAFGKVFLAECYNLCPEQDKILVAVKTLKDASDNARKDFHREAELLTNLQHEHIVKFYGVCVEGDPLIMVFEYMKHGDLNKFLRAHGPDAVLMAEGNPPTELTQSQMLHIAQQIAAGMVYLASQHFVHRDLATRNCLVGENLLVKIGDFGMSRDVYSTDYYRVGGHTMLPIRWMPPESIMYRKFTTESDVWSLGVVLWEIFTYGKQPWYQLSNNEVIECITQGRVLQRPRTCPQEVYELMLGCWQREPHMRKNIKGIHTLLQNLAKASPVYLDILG
Sequence of MAPK2(h) (P28482 whole entry): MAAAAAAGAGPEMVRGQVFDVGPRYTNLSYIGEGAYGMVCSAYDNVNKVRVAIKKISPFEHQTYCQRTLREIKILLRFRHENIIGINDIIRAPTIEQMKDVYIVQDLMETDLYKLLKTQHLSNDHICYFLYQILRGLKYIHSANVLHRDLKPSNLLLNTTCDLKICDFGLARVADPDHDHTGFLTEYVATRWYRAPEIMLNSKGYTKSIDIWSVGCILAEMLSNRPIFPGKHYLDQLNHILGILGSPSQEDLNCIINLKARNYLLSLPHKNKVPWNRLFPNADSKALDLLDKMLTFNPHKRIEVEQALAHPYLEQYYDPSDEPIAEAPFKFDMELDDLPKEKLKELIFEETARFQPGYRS
Sequence of Lyn(h) (P07948 whole entry): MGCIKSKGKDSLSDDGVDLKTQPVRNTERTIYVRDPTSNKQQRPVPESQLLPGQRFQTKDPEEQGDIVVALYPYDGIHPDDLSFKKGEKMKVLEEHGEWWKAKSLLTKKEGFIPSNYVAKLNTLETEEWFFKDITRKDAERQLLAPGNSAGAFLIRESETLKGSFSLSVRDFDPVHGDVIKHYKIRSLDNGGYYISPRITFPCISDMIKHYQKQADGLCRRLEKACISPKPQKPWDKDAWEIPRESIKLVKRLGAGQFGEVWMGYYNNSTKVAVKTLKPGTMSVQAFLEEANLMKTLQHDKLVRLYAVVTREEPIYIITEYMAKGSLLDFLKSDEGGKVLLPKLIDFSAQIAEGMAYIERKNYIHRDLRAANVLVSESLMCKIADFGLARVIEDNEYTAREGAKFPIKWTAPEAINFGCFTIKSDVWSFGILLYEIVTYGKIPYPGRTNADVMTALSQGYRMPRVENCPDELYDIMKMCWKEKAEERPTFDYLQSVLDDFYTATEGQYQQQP
Sequence of cSRC(h) (P12931 whole entry): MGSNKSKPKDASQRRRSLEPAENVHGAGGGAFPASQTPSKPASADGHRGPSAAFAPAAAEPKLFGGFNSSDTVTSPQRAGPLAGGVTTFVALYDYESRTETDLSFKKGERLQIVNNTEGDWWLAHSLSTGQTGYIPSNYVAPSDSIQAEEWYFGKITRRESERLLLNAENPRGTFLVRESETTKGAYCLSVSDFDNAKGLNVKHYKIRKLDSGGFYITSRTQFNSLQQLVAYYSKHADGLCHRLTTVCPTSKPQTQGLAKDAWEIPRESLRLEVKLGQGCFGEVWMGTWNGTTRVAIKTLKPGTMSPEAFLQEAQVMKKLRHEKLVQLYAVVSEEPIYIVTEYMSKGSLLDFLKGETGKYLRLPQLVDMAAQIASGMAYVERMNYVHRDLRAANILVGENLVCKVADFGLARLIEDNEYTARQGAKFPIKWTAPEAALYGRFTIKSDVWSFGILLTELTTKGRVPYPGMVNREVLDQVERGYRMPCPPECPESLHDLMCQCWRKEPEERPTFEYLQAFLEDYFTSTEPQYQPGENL
Sequence of BRK(h) (Q13882 whole entry): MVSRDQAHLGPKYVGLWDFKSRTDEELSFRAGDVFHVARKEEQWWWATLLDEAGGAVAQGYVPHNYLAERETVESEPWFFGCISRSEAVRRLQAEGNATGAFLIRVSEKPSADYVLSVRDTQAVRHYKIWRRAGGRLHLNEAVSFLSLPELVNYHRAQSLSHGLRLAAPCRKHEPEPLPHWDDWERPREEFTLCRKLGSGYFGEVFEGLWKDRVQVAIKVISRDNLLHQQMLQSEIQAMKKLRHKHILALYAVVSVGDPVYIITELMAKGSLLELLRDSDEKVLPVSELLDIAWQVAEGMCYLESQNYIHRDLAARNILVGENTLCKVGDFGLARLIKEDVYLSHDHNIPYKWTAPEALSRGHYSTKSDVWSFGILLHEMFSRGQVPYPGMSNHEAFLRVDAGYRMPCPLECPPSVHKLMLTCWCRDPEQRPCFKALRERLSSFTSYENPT

## COc1cc(O)c2c(c1)[C@H]1O[C@@H]1C[C@H](O)[C@H](O)C(=O)/C=C\C[C@H](C)OC2=O [Hypothemycin, hypothemycin]
[1]
  remaining activity at 0.2 µM: 107%
[2]
  remaining activity at 0.2 µM: 99%
[3]
  remaining activity at 0.2 µM: 101%
[4]
  remaining activity at 0.2 µM: 98%
[5]
  remaining activity at 0.2 µM: 101%
[6]; 0.2 μM
  remaining activity at 0.2 µM: 79%
[6]; 2.0 μM
  remaining activity at 2 µM: 5%
[7]
  remaining activity at 0.2 µM: 93%
[8]
  remaining activity at 0.2 µM: 102%
[9]
  remaining activity at 0.2 µM: 90%
[10]; 0.2 μM
  remaining activity at 0.2 µM: 87%
[10]; 2.0 μM
  remaining activity at 2 µM: 91%
[11]
  remaining activity at 0.2 µM: 110%
[12]
  remaining activity at 0.2 µM: 89%
[13]
  remaining activity at 0.2 µM: 104%
[14]; 0.2 μM
  remaining activity at 0.2 µM: 54%
[14]; 2.0 μM
  remaining activity at 2 µM: 8%
[15]
  remaining activity at 0.2 µM: 108%
[16]; 0.2 μM
  remaining activity at 0.2 µM: 58%
[16]; 2.0 μM
  remaining activity at 2 µM: 18%
[17]
  remaining activity at 0.2 µM: 124%
[18]
  remaining activity at 0.2 µM: 101%
[19]
  remaining activity at 0.2 µM: 102%
[20]
  remaining activity at 0.2 µM: 102%
[21]
  remaining activity at 0.2 µM: 104%
[22]
  remaining activity at 0.2 µM: 100%
[23]
  remaining activity at 0.2 µM: 94%
[24]
  remaining activity at 0.2 µM: 88%
[25]; 0.2 μM
  remaining activity at 0.2 µM: 90%
[25]; 2.0 μM
  remaining activity at 2 µM: 40%
[26]
  remaining activity at 0.2 µM: 108%
[27]; 0.2 μM
  remaining activity at 0.2 µM: 75%
[27]; 2.0 μM
  remaining activity at 2 µM: 49%
[28]; 0.2 μM
  remaining activity at 0.2 µM: 634%
[28]; 2.0 μM
  remaining activity at 2 µM: 106%
[29]; 0.2 μM
  remaining activity at 0.2 µM: 77%
[29]; 2.0 μM
  remaining activity at 2 µM: 20%
[30]
  remaining activity at 0.2 µM: 96%
[31]
  remaining activity at 0.2 µM: 97%
[32]
  remaining activity at 0.2 µM: 105%
[33]
  remaining activity at 0.2 µM: 98%
[34]
  remaining activity at 0.2 µM: 99%
[35]
  remaining activity at 0.2 µM: 101%
[36]; 0.2 μM
  remaining activity at 0.2 µM: 82%
[36]; 2.0 μM
  remaining activity at 2 µM: 83%
[37]
  remaining activity at 0.2 µM: 100%
